# Numbers after ± are expanded uncertainties.
# Details: 100 kPa, Liquid, Vibrating tube method
mass density (273.65 K),mass density (274.15 K),mass density (274.65 K),mass density (275.15 K),mass density (275.65 K),mass density (276.15 K),mass density (276.65 K),mass density (277.15 K),mass density (277.65 K),mass density (278.15 K),mass density (278.65 K),mass density (279.15 K),mass density (279.65 K),mass density (280.15 K),mass density (280.65 K),mass density (281.15 K),mass density (281.65 K),mass density (282.15 K),Compound
835.7 ± 2.1 kg/m3,835.3 ± 2.1 kg/m3,834.9 ± 2.1 kg/m3,834.5 ± 2.1 kg/m3,834.1 ± 2.1 kg/m3,833.7 ± 2.1 kg/m3,833.3 ± 2.1 kg/m3,832.9 ± 2.1 kg/m3,832.5 ± 2.1 kg/m3,832.1 ± 2.1 kg/m3,831.7 ± 2.1 kg/m3,831.3 ± 2.1 kg/m3,830.9 ± 2.1 kg/m3,830.5 ± 2.1 kg/m3,830.1 ± 2.1 kg/m3,829.7 ± 2.1 kg/m3,829.3 ± 2.1 kg/m3,828.9 ± 2.1 kg/m3,CCC(O)CC [3-pentanol]
824 ± 2.1 kg/m3,823.6 ± 2.1 kg/m3,823.2 ± 2.1 kg/m3,822.8 ± 2.1 kg/m3,822.5 ± 2.1 kg/m3,822.1 ± 2.1 kg/m3,821.7 ± 2.1 kg/m3,821.3 ± 2.1 kg/m3,820.9 ± 2.1 kg/m3,820.6 ± 2.1 kg/m3,820.2 ± 2.1 kg/m3,819.8 ± 2.1 kg/m3,819.4 ± 2.1 kg/m3,819.1 ± 2.1 kg/m3,818.7 ± 2.1 kg/m3,818.3 ± 2.1 kg/m3,817.9 ± 2.1 kg/m3,817.5 ± 2.1 kg/m3,CCCC(C)O (centres undefined) [pentan-2-ol]

Compound,mass density (273.65 K),mass density (274.15 K),mass density (274.65 K),mass density (275.15 K),mass density (275.65 K),mass density (276.15 K),mass density (276.65 K),mass density (277.15 K),mass density (277.65 K),mass density (278.15 K),mass density (278.65 K),mass density (279.15 K),mass density (279.65 K),mass density (280.15 K),mass density (280.65 K),mass density (281.15 K),mass density (281.65 K),mass density (282.15 K)
CCC(C)(C)O [2-methylbutan-2-ol],826.7 ± 2 kg/m3,826.3 ± 2 kg/m3,825.8 ± 2 kg/m3,825.4 ± 2 kg/m3,824.9 ± 2 kg/m3,824.5 ± 2 kg/m3,824 ± 2 kg/m3,823.5 ± 2 kg/m3,823.1 ± 2 kg/m3,822.6 ± 2 kg/m3,822.2 ± 2 kg/m3,821.7 ± 2 kg/m3,821.3 ± 2 kg/m3,820.8 ± 2 kg/m3,820.3 ± 2 kg/m3,819.9 ± 2 kg/m3,819.4 ± 2 kg/m3,819 ± 2 kg/m3
